# Measurements: US10196363B2, “Dihydropyrimidin-2-one compounds and medical use thereof” (JAPAN TOBACCO INC., priority 2014, dated 2019)
# Like-named read-outs stand apart in the source and are kept apart here.
# How the values were obtained:
# [1] = target: T1, mouse RORγ (Mus musculus, UniProt P51450); test: In vitro assay of inhibitory effect against RORγ transcriptional activity (GAL4-mRORγ LBD luciferase reporter gene assay in CHO cells); type: cell-based; conditions: for mRORγ luciferase activity, %-of-control: vehicle-control 0.2% DMSO alone = 100%
# T1 construct: mouse RORγ, from Ile251 to Lys516; expressed in transfected cells; host or cells: CHO cells (Chinese hamster ovary), transient co-transfection with pG5-Luc
# T1 sequence (P51450 251-516): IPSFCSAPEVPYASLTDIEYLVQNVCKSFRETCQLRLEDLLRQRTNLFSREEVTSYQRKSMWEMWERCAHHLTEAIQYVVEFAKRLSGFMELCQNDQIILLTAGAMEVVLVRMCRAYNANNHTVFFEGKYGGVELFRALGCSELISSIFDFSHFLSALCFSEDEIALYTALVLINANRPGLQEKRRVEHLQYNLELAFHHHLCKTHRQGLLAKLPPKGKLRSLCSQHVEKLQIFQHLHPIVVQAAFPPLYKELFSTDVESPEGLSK
# Summary of the method: (§1)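 CHO cells, transient GAL4-RORγ LBD + pG5-Luc; cmpd 8 conc, 0.2% DMSO, 2 d, 37 °C, 5% CO2. SteadyLite luminescence, %-of-DMSO control (100%), EC50 by curve fit. Cytotoxic concentrations (resazurin) excluded.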
# [2] = target: T2, human RORγ (Homo sapiens, UniProt P51449); test: In vitro assay of inhibitory effect against RORγ transcriptional activity (GAL4-hRORγ LBD luciferase reporter gene assay in CHO cells); type: cell-based; conditions: for hRORγ luciferase activity, %-of-control: vehicle-control 0.2% DMSO alone = 100%
# T2 construct: human RORγ, from Ser253 to Lys518; expressed in transfected cells; host or cells: CHO cells (Chinese hamster ovary), transient co-transfection with pG5-Luc
# T2 sequence (P51449 253-518): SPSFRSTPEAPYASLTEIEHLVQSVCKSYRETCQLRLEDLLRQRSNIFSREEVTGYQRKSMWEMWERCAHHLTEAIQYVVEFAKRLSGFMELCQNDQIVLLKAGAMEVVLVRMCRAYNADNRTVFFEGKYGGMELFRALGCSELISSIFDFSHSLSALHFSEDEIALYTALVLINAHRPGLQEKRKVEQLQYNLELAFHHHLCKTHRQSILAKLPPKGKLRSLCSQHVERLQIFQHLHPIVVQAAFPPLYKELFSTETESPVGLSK
# Summary of the method: as §1
# [3] = GAL4-mRORγ LBD / pG5-Luc in CHO cells, 2 days incubation
# [4] = GAL4-hRORγ LBD / pG5-Luc in CHO cells, 2 days incubation
# [5] = GAL4-mRORγ LBD luciferase reporter, CHO cells, read-out: LUC EC50 mRORγ
# [6] = GAL4-hRORγ LBD luciferase reporter, CHO cells, read-out: LUC EC50 hRORγ
# [7] = value in parentheses beside the EC50 bound
# [8] = value in parentheses beside the > EC50 bound
SMILES,"EC50 [1, 3] [nM]","EC50 [2, 4] [nM]","EC50 [1, 5] [nM]","EC50 [2, 6] [nM]",further results
CC(C)C1=CN([C@H]2CC[C@H](C(=O)O)CC2)C(=O)N[C@]1(C)c1ccc(CCC(C)(C)C)c(Cl)c1 [Example 78],10800,6490,,,
CC1=CN(CCCC(=O)O)C(=O)N[C@@]1(C)c1ccc(CCC(C)(C)C)c(Cl)c1 [Example 61],46,143,,,
CC(C)C1=CN(CCC(=O)O)C(=O)N[C@@]1(C)c1ccc(C2=CCC(F)(F)CC2)c(Cl)c1 [Example 327],,,40,58,
"COCCN1C=C([C@H]2C[C@@H](C(=O)O)C2)C(C)(c2ccc(CCC(C)(C)C)c(Cl)c2)NC1=O (single isomer, unassigned) [Example 168]",18,12,,,
"CC(C)C1=CN(CC(C)C(=O)O)C(=O)N[C@@]1(C)c1ccc(CCC(C)(C)C)c(Cl)c1 (single isomer, unassigned) [Example 299]",,,16,11,
"CC(C)C1=CN(CCC(=O)O)C(=O)NC1(C)c1ccc(C2CCCC(C)(C)C2)c(Cl)c1 (single isomer, unassigned) [Example 166]",29,14,,,
CC(C)CC[S+]([O-])c1ccc([C@]2(C)NC(=O)N(CCC(=O)O)C=C2C(C)C)cc1Cl (mixture of isomers) [Example 217],,,> 20000,> 20000,"mRORγ luciferase activity, %-of-control [1, 7]: (77%); hRORγ luciferase activity, %-of-control [2, 7]: (90%)"
"CC(C)C1=CN(C2CNCC2C(=O)O)C(=O)N[C@@]1(C)c1ccc(CCC(C)(C)C)c(Cl)c1 (single isomer, unassigned) [Example 238]",,,666,715,
"CC(C)N1C=C(C(C)(C)CCC(=O)O)C(C)(c2ccc(CCC(C)(C)C)c(Cl)c2)NC1=O (single isomer, unassigned) [Example 172]",18,13,,,
CC(C)CCOc1ccc([C@]2(C)NC(=O)N(C34CC(C(=O)O)(C3)C4)C=C2C2CC(F)(F)C2)cc1Cl [Example 349],,,45,63,
CC(C)C1=CN(CCC(=O)O)C(=O)N[C@@]1(C)c1ccc(C(C)CC(C)(C)C)c(Cl)c1 (some centres unmarked) [Example 179],27,64,,,
CC(C)C1=CN(CCC(=O)O)C(=O)N[C@@]1(C)c1ccc(C#CC(C)(C)C)c(Cl)c1 [Example 317],,,24,40,
COCCC1=CN(C23CCC(C(=O)O)(C2)C3)C(=O)N[C@@]1(C)c1ccc([C@H]2C[C@@H](C(C)C)C2)c(Cl)c1 [Example 330],,,14,19,
CC(C)CCc1ccc(C2(C)NC(=O)N(CCCC(=O)O)C=C2C(C)C)cc1Cl (racemic) [Example 27],16,25,,,
CCOC(=O)c1ccc(C2(C)NC(=O)N(CCC(=O)O)C=C2C(C)C)cc1Cl (racemic) [Example 114],11000,14900,,,
CC1(C)CC=C(c2ccc([C@]3(C)NC(=O)N(CCC(=O)O)C=C3C3CC3)cc2Cl)CC1 [Example 321],,,48,60,
CC(C)CCS(=O)(=O)c1ccc([C@]2(C)NC(=O)N(CCC(=O)O)C=C2C(C)C)cc1Cl [Example 216],,,> 20000,> 20000,"mRORγ luciferase activity, %-of-control [1, 7]: (76%); hRORγ luciferase activity, %-of-control [2, 7]: (86%)"
"COCC(C)C1=CN(CCC(=O)O)C(=O)N[C@@]1(C)c1ccc(CCC(C)(C)C)c(Cl)c1 (single isomer, unassigned) [Example 305]",,,6,3,
CC(C)C1=CN(C23CCC(C(=O)O)(CC2)C3)C(=O)N[C@@]1(C)c1ccc(CCC(C)(C)C)c(Cl)c1 [Example 269],,,23,19,
COCCC1=CN(c2ccc(C(=O)O)cc2)C(=O)N[C@@]1(C)c1ccc([C@H]2C[C@@H](C(C)C)C2)c(Cl)c1 [Example 318],,,14,17,
COCCN1C=C(c2cccc(C(=O)O)c2)[C@](C)(c2ccc(CCC(C)(C)C)c(Cl)c2)NC1=O [Example 273],,,75,25,
COC[C@H]1C[C@@H](C2=CN(CCC(=O)O)C(=O)N[C@@]2(C)c2ccc(CCC(C)(C)C)c(Cl)c2)C1 [Example 206],,,117,81,
CC(C)C1=CN(CCC(=O)O)C(=O)N[C@@]1(C)c1ccc(CC2CCCC2)c(Cl)c1 [Example 263],,,18,26,

SMILES,"EC50 [1, 3] [nM]","EC50 [2, 4] [nM]","EC50 [1, 5] [nM]","EC50 [2, 6] [nM]",further results
COCCC1=CN(c2ccc(C(=O)O)cc2)C(=O)N[C@@]1(C)c1ccc(CC2CCCCC2)c(Cl)c1 [Example 336],,,7,10,
"CC(C)C1=CN([C@H]2C[C@H](CC(=O)O)C2)C(=O)N[C@]1(C)c1ccc(CCC(C)(C)C)c(Cl)c1 (single isomer, unassigned) [Example 107]",1980,3930,,,
CC(C)C1=CN(c2ccc(C(=O)O)cc2)C(=O)N[C@@]1(C)c1cc(F)c(OCC(C)(C)C)c(Cl)c1 [Example 193],,,19,18,
CC(C)C1=CN(CCC(=O)O)C(=O)N[C@@]1(C)c1cc(F)c(OCC(C)(C)C)c(Cl)c1 [Example 164],11,18,,,
"CC(C)C1=CN(C2CCCC(C(=O)O)C2)C(=O)N[C@@]1(C)c1ccc(CCC(C)(C)C)c(Cl)c1 (single isomer, unassigned) [Example 254]",,,28,28,
CC(C)C1=CN(CCC(=O)O)C(=O)N[C@@]1(C)c1ccc(CCC2(F)CCCC2)c(Cl)c1 [Example 301],,,10,27,
CC(C)(C)CCc1ccc([C@]2(C)NC(=O)N(CCC(=O)O)C=C2C2CC(F)(F)C2)cc1C(F)(F)F [Example 343],,,19,38,
C[C@@]1(c2ccc(OCCC3CC3)c(Cl)c2)NC(=O)N(C23CC(C(=O)O)(C2)C3)C=C1C1CC(F)(F)C1 [Example 354],,,144,239,
CC(C)C1=CN(CCC(C)C(=O)O)C(=O)NC1(C)c1ccc(OCC(C)(C)C)c(Cl)c1 (mixture of isomers) [Example 21],24,19,,,
CC(C)C1=CN(CCC(=O)O)C(=O)N[C@]1(C)c1ccc(CCCC(C)(C)C)c(Cl)c1 [Example 123],> 3200,> 3200,,,"mRORγ luciferase activity, %-of-control [1, 8]: (100%); hRORγ luciferase activity, %-of-control [2, 8]: (109%)"
CC(C)C1=CN(CC[C@@H](O)C(=O)O)C(=O)N[C@@]1(C)c1ccc(CCC(C)(C)C)c(Cl)c1 [Example 89],16,16,,,
CC(C)(C)CCc1ccc(C2NC(=O)N(CCCC(=O)O)C=C2C(C)(C)C)cc1Cl (racemic) [Example 8],22,21,,,
CC(C)C1=CN(CCC(=O)O)C(=O)N[C@@]1(C)c1ccc(C2CCC(F)(F)CC2)c(Cl)c1 [Example 328],,,19,35,
CC(C)C1=CN(CCCC(C)(C)C(=O)O)C(=O)N[C@@]1(C)c1ccc(CCC(C)(C)C)c(Cl)c1 [Example 75],316,296,,,
"CC(C)C1=CN(C2CCC(C(=O)O)C2)C(=O)N[C@@]1(C)c1ccc(CCC(C)(C)C)c(Cl)c1 (single isomer, unassigned) [Example 279]",,,22,16,
"CC(C)C1=CN(CCC(=O)O)C(=O)N[C@@]1(C)c1ccc(C2CC2C(C)C)c(Cl)c1 (single isomer, unassigned) [Example 174]",11,14,,,
"CC(C)C1=CN(C2CCCC(C(=O)O)C2)C(=O)N[C@@]1(C)c1ccc(CCC(C)(C)C)c(Cl)c1 (single isomer, unassigned) [Example 255]",,,296,273,
CC(C)[C@H]1C[C@@H](c2ccc([C@]3(C)NC(=O)N([C@H]4C[C@H](C(=O)O)C4)C=C3C3CC(F)(F)C3)cc2Cl)C1 [Example 329],,,50,74,
CC(C)C1=CN(CCC(=O)O)C(=O)N[C@]1(C)c1ccc(CCC2CC(C)(C)C2)c(Cl)c1 [Example 141],> 8000,> 8000,,,"mRORγ luciferase activity, %-of-control [1, 8]: (52%); hRORγ luciferase activity, %-of-control [2, 8]: (57%)"
"CCOC(=O)C1CNCC1N1C=C(C(C)C)[C@](C)(c2ccc(CCC(C)(C)C)c(Cl)c2)NC1=O (single isomer, unassigned) [Example 244]",,,269,176,
CC(C)(C)CCc1ccc([C@]2(C)NC(=O)N(CCC(=O)O)C=C2CCS(C)(=O)=O)cc1Cl [Example 303],,,1310,1400,
COCCN1C=C(c2cncc(C(=O)O)c2)[C@](C)(c2ccc(CCC(C)(C)C)c(Cl)c2)NC1=O [Example 275],,,1210,542,
